Assay results published in patent US9370503B1, “Compounds for treating ocular diseases” (priority 2015, dated 2016).

How the values were obtained:
[1] = test system: ARPE-19 cells; assay: Hypoxia-induced damage in ARPE-19 cells (MTT); type: cell-based, human; conditions: hypoxia 1% O2, 72 h
Procedure: (§1) ARPE-19 cells were grown in DMEM/F12 medium supplemented with 10% FBS, 100 units/ml penicillin G, and 100 μg/ml streptomycin sulfate. HUVECs were grown in vascular cell basal medium supplemented with endothelial cell growth kit. Cells were incubated in a humidified incubator at 37° C. under 5% CO2 and 95% air.
MTT assay was used to measure the viability of ARPE-19 cells and HUVECs. 2×10^5 ARPE-19 cells or 5×10^4 HUVECs were seeded in 96-well plates (100 μl/well) and allowed to grow overnight. Negative control was prepared by adding 100 μl medium without cells. The cells were then treated with fresh medium with a compound of Formula (II) (“(II)”) (0.03, 0.1, 0.3, 1, 3 and 10 μg/ml) and/or oxidants (NaIO3, H2O2, t-BHP and NaN3) for 12, 24, or 72 hours (200 μl/well). The vehicle control group was treated with vehicle. 20 μl MTT (5 mg/ml) was added to wells, and incubated for another 4 h. After incubation, the medium was discarded and 100 μl DMSO was added to solubilize formazan produced from MTT by the viable cells. Absorbance was measured at 570 nm using a microplate reader (Bio-Rad Laboratories, Inc., CA). Cells viability was calculated according to the following formula: Viability of cells (%)=(absorbance in tested sample−absorbance in negative control)/(absorbance in vehicle control−absorbance in negative control)×100%. […]

[2] = test system: ARPE-19 cells; assay: H2O2-induced injury in ARPE-19 cells (MTT); type: cell-based, human; conditions: 10 μg/ml compound, 24 hours
Procedure: as §1
MTT assay was used to measure the viability of ARPE-19 cells and HUVECs. 2×10^5 ARPE-19 cells or 5×10^4 HUVECs were seeded in 96-well plates (100 μl/well) and allowed to grow overnight. Negative control was prepared by adding 100 μl medium without cells. The cells were then treated with fresh medium with a compound of Formula (II) (“(II)”) (0.03, 0.1, 0.3, 1, 3 and 10 μg/ml) and/or oxidants (NaIO3, H2O2, t-BHP and NaN3) for 12, 24, or 72 hours (200 μl/well). The vehicle control group was treated with vehicle. 20 μl MTT (5 mg/ml) was added to wells, and incubated for another 4 h. After incubation, the medium was discarded and 100 μl DMSO was added to solubilize formazan produced from MTT by the viable cells. Absorbance was measured at 570 nm using a microplate reader (Bio-Rad Laboratories, Inc., CA). Cells viability was calculated according to the following formula: Viability of cells (%)=(absorbance in tested sample−absorbance in negative control)/(absorbance in vehicle control−absorbance in negative control)×100%.

[3] = test system: rat's retinal function after ischemic insult; assay: b-wave recovery of retinal function after ischemic insult (ERG); type: in vivo; conditions: 1% instilled topically
Procedure: The retinal ischemia experiment has been described previously (Chiou et al., J. Ocular Pharmacol. 9:179-185, 1993, and Chiou et al., J. Ocular Pharmacol. 10:493-498, 1994). Electroretinograms (ERG) were carried out to assess the retinal function prior to and after the ischemic insult. ERGs were recorded using Ag/AgCl electrodes placed in contact with the cornea. One stainless steel needle was inserted subcutaneously between the two eyes as a reference electrode, and another needle was inserted subcutaneously into the neck as a ground electrode. A photostimulator (Grass PS22 Flash) was used to produce flashes of light 5 inches from the eye, and the ERG potentials were recorded on a polygraph. The ERG system was purchased from LKC Technologies, Inc. (Gaithersburg, Md.). A single flash (10 msec) of white light stimuli was used to evoke ERG a- and b-waves. Peak b-wave amplitudes were measured from the trough of the a-wave to the peak of the b-wave.
Long-Evans rats (200-250 g), dark-adapted at least 2 hours, were anaesthetized intramuscularly with ketamine (35 mg/kg) plus xylazine (5 mg/kg). Half of the initial dose was administrated at one hour intervals to maintain adequate anesthesia. The pupils were dilated with 1% tropicamide (50 μl) for ERG experiments. Retinal ischemia was produced by occlusion of the central retina and posterior ciliary arteries using a ligature placed around the optic nerve and posterior ciliary artery. The ligature was drawn tightly through a micropipette tip placed at the base of the eyeball socket to occlude the retinal vessels for 30 min. After 30 min of retinal ischemia, the ligature was liberated and the retinal arteries allowed to reperfuse. ERGs were measured at 30, 60, 90, 120, 180 and 240 min thereafter. The compounds and vehicle were administered topically before occlusion of the central retinal arteries.

[4] = test system: laser induced AMD rat model; assay: Laser induced AMD rat model, CNV area by fluorescein angiography; type: in vivo; conditions: (II) instillation, laser rupture of Bruch's membrane, vs control about 2.5 mm^2
Procedure: The rats were randomly divided into 2 groups. Control group was instilled with vehicle (30% HP-β-CD solution). […] Both eyes of all rats were instilled with 1 drop of ophthalmic solutions 3 times a day for 1 week before and 4 weeks after laser induced injury. The rats were anesthetized for all procedures with intramuscular injection of ketamine (35 mg/kg) and xylazine (5 mg/kg). The pupils were dilated with one drop each of 10 mg/ml atropine, and 25 mg/ml phenylephrine. The fundus was visualized by the VOLK super Pupil XL Biomicroscopy Lens (Keeler Instruments Inc., Broomall, Pa., USA). A double frequency Nd:YAG laser (Laserex LP3532; Lumenis Inc., Salt Lake City, Utah, USA) was used at 532 nm wavelength. Laser parameters were used by 100 μm spot size, 0.15-second exposure and 150-200 mw powers. Five laser spots were made to the ocular fundus at approximately equal distances around the optic nerves. […] Only laser spots with bubble formation were included in the study. Lesions with subretinal hemorrhage were excluded. Fluorescein angiography (FA) was performed after 2 and 4 weeks laser treatment with a digital fundus camera (TRC-50EX; TOPCON, Tokyo, Japan). 100 mg/ml fluorescein sodium salt was injected (0.5 ml/kg) through hypoglossal vein. Both early (under 2 minutes) and late (over 7 minutes) fluorescein phases were captured. […]

With `CC(C)=CCC/C(C)=C/Cc1c([C@@H]2CC(=O)c3c(cc(O)c(CC=C(C)C)c3O)O2)ccc(O)c1O` [Formula (II)] the “effect on viability of ARPE-19 cells in hypoxic condition” value ([1]; 0.03 μg/ml to 3 μg/ml) was “no effect”, the “reversal of injury induced by hypoxia in ARPE-19 cells” value ([1]; 10 μg/ml) was 24% and the “reversal of H2O2-induced injury in ARPE-19 cells” value ([2]; 200 μM H2O2) was 55%. The “reversal of H2O2-induced injury in ARPE-19 cells” value ([2]; 400 μM H2O2) was 72%, the “potency in b-wave recovery” value [3] was “about the same as 1% (I)” and the “duration of drug action on b-wave recovery” value ([3]; after drug application) was 120 min. For the same molecule, the “area of CNV formation” value [4] was “significantly suppressed”.
